Results reported in the supplement of paper PMC10307832.

These cell lines were tested with CC1(C)CCC(CN2CCN(c3ccc(C(=O)NS(=O)(=O)c4ccc(NCC5CCOCC5)c([N+](=O)[O-])c4)c(Oc4cnc5[nH]ccc5c4)c3)CC2)=C(c2ccc(Cl)cc2)C1 [Venetoclax] + CC(=O)c1c(C)c2cnc(Nc3ccc(N4CCNCC4)cn3)nc2n(C2CCCC2)c1=O [Palbociclib] (partner 0.5 µM) (assay: relative viability (nuclei count vs DMSO), 5 days (fraction); higher = more cells survive). Details: first compound 1 µM.
In short: (§1)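 Lung cancer cell lines were pin-tool dosed in 1536-well plates on the day after seeding, with either a lone drug or a fixed anchor-drug dose plus five library-drug doses (not always all listed) in √10 steps. Nuclei were counted on 4× images after 5 days. Relative viability is the ratio of treated-well to vehicle-well nuclei counts, with each value a median of duplicate plates.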

Row | Cell Line | relative viability
1 | COR-L 105 | 0.413
2 | LC-2-ad | 0.508
3 | LXF-289 | 0.552
4 | ChaGo-K-1 | 0.899
5 | NCI-H2170 | 0.355
6 | NCI-H322M | 0.485
7 | HCC-78 | 0.469
8 | SW 900 | 0.498
9 | NCI-H1648 | 0.225

What follows are cell lines tested with Cn1cnc2c(F)c(Nc3ccc(Br)cc3Cl)c(C(=O)NOCCO)cc21 [Selumetinib] + N=C(N)NC(=N)NCCc1ccccc1 [Phenformin] (partner 250 µM) in the same assay as above. Details: first compound 0.02 µM.
In short: as §1

Row | Cell Line | relative viability
10 | NCI-H522 | 0.641
11 | NCI-H1623 | 0.54
12 | PC-14 | 0.516
13 | NCI-H1666 | 0.506
14 | NCI-H1755 | 0.628
15 | NCI-H2023 | 0.373
16 | EPLC-272H | 0.26
17 | LCLC-97TM1 | 0.44
18 | PC-3 [JPC-3] | 0.446
19 | LOU-NH91 | 0.674
20 | NCI-H647 | 0.592
21 | NCI-H23 | 0.834
22 | EMC-BAC-2 | 0.559
23 | NCI-H2126 | 0.526
24 | HCC-44 | 0.179
25 | NCI-H1734 | 0.351
26 | NCI-H650 | 0.521

Row | Cell Line | relative viability
27 | LK-2 | 0.561
28 | NCI-H2228 | 0.254
29 | NCI-H2342 | 0.623
30 | SK-MES-1 | 0.667
31 | HARA | 0.502
32 | COR-L23 | 0.464
33 | COR-L 105 | 0.355
34 | LC-2-ad | 0.557
35 | LXF-289 | 0.52
36 | ChaGo-K-1 | 0.484
37 | NCI-H2170 | 0.408
38 | NCI-H322M | 0.668
39 | HCC-78 | 0.667
40 | A549 | 0.132
41 | SW 900 | 0.603
42 | NCI-H596 | 0.894
43 | NCI-H1563 | 0.688

Same assay, conditions: first compound 0.06325 µM

Row | Cell Line | relative viability
44 | NCI-H522 | 0.556
45 | NCI-H1623 | 0.503
46 | PC-14 | 0.507
47 | NCI-H1666 | 0.534
48 | NCI-H1755 | 0.594
49 | NCI-H2023 | 0.399
50 | EPLC-272H | 0.223
51 | LCLC-97TM1 | 0.43
52 | PC-3 [JPC-3] | 0.489
53 | LOU-NH91 | 0.69
54 | NCI-H647 | 0.488
55 | NCI-H23 | 0.706
56 | EMC-BAC-2 | 0.583
57 | NCI-H2126 | 0.453
58 | HCC-44 | 0.187
59 | NCI-H1734 | 0.298
60 | NCI-H650 | 0.407

Row | Cell Line | relative viability
61 | LK-2 | 0.576
62 | NCI-H2228 | 0.284
63 | NCI-H2342 | 0.618
64 | SK-MES-1 | 0.599
65 | HARA | 0.387
66 | COR-L23 | 0.469
67 | COR-L 105 | 0.321
68 | LC-2-ad | 0.544
69 | LXF-289 | 0.501
70 | ChaGo-K-1 | 0.555
71 | NCI-H2170 | 0.395
72 | NCI-H322M | 0.561
73 | HCC-78 | 0.74
74 | A549 | 0.14
75 | SW 900 | 0.573
76 | NCI-H596 | 0.695
77 | NCI-H1563 | 0.68

Same assay, conditions: first compound 0.2 µM

Row | Cell Line | relative viability
78 | NCI-H522 | 0.635
79 | NCI-H1623 | 0.483
80 | PC-14 | 0.529
81 | NCI-H1666 | 0.569
82 | NCI-H1755 | 0.584
83 | NCI-H2023 | 0.381
84 | EPLC-272H | 0.211
85 | LCLC-97TM1 | 0.387
86 | PC-3 [JPC-3] | 0.473
87 | LOU-NH91 | 0.688
88 | NCI-H647 | 0.512
89 | NCI-H23 | 0.774
90 | EMC-BAC-2 | 0.552
91 | NCI-H2126 | 0.466
92 | HCC-44 | 0.209
93 | NCI-H1734 | 0.345
94 | NCI-H650 | 0.551

Row | Cell Line | relative viability
95 | LK-2 | 0.539
96 | NCI-H2228 | 0.219
97 | NCI-H2342 | 0.564
98 | SK-MES-1 | 0.637
99 | HARA | 0.48
100 | COR-L23 | 0.519
101 | COR-L 105 | 0.331
102 | LC-2-ad | 0.532
103 | LXF-289 | 0.442
104 | ChaGo-K-1 | 0.465
105 | NCI-H2170 | 0.386
106 | NCI-H322M | 0.57
107 | HCC-78 | 0.601
108 | A549 | 0.143
109 | SW 900 | 0.416
110 | NCI-H596 | 0.751
111 | NCI-H1563 | 0.627

Same assay, conditions: first compound 0.6325 µM

Row | Cell Line | relative viability
112 | NCI-H522 | 0.609
113 | NCI-H1623 | 0.487
114 | PC-14 | 0.447
115 | NCI-H1666 | 0.565
116 | NCI-H1755 | 0.53
117 | NCI-H2023 | 0.341
118 | EPLC-272H | 0.223
119 | LCLC-97TM1 | 0.399
120 | PC-3 [JPC-3] | 0.414
121 | LOU-NH91 | 0.661
122 | NCI-H647 | 0.414
123 | NCI-H23 | 0.519
124 | EMC-BAC-2 | 0.537
125 | NCI-H2126 | 0.434
126 | HCC-44 | 0.184
127 | NCI-H1734 | 0.248
128 | NCI-H650 | 0.54

Row | Cell Line | relative viability
129 | LK-2 | 0.477
130 | NCI-H2228 | 0.21
131 | NCI-H2342 | 0.722
132 | SK-MES-1 | 0.462
133 | HARA | 0.299
134 | COR-L23 | 0.463
135 | COR-L 105 | 0.297
136 | LC-2-ad | 0.575
137 | LXF-289 | 0.434
138 | ChaGo-K-1 | 0.461
139 | NCI-H2170 | 0.326
140 | NCI-H322M | 0.574
141 | HCC-78 | 0.677
142 | A549 | 0.0906
143 | SW 900 | 0.569
144 | NCI-H596 | 0.564
145 | NCI-H1563 | 0.593

Each cell line was assayed with CC1(C)CCC(CN2CCN(c3ccc(C(=O)NS(=O)(=O)c4ccc(NCC5CCOCC5)c([N+](=O)[O-])c4)c(Oc4cnc5[nH]ccc5c4)c3)CC2)=C(c2ccc(Cl)cc2)C1 [Venetoclax] + N=C(N)NC(=N)NCCc1ccccc1 [Phenformin] (partner 250 µM) in the same assay as above. Details: first compound 0.01 µM.
In short: as §1

Row | Cell Line | relative viability
146 | NCI-H522 | 0.647
147 | NCI-H1623 | 0.556
148 | PC-14 | 0.562
149 | NCI-H1666 | 0.546
150 | NCI-H1755 | 0.645
151 | NCI-H2023 | 0.434
152 | EPLC-272H | 0.353
153 | LCLC-97TM1 | 0.463
154 | PC-3 [JPC-3] | 0.503
155 | LOU-NH91 | 0.641
156 | NCI-H647 | 0.543
157 | NCI-H23 | 0.762
